We go through nine molecules from PMC3166071, “Ancient Antimicrobial Peptides Kill Antibiotic-Resistant Pathogens: Australian Mammals Provide New Options” (PLoS ONE, 2011).

In series [1] the test system is E. coli DH5α. The series can be described thus: microbe, parasite or virus in culture. To be noted: for Relative potency of WAM1: against E. coli, WAM1 relative to the antibiotic of the line. It counts as cell-based, Escherichia coli. The method, then:
(§1) Peptides were synthesized and HPLC purified (AusPep Pty Ltd). The two-stage radial diffusion assay used in this study has been described elsewhere. Briefly, ∼4×10^6 of mid-logarithmic-phase organisms were mixed into 10 ml of warm 0.8% agarose containing 0.03% (w/v) Trypticase soy broth (TSB) powder buffered with 10 mM sodium phosphate, pH 7.4. The synthetic peptides were serially diluted in 0.01% acetic acid and 5 µl peptide samples were loaded in 2.5 mm diameter wells. The plates were covered, and incubated at 37°C. After 3 hours, a 10 ml overlay gel composed of 6% TSB, 0.8% agarose in 10 mM sodium phosphate buffer (pH 7.4) was poured onto the plates. The plates were incubated overnight to allow the surviving organisms to form microcolonies. The clear zone was measured using a magnified transilluminator and expressed in units (1 mm = 10 U) after subtracting the well diameter. The MIC is defined by the χ intercept of a regression line through zone diameters obtained from a series of serially diluted peptide samples. For multidrug-resistant bacteria, MICs were measured as described by micro-broth dilution in Mueller-Hinton broth (Oxoid, Hampshire, England) according to according to Clinical and Laboratory Standards Institute (CLSI) standards. The MIC measurements were performed in duplicate and the data incorporated into a final MIC using standard methods. All the bacterial strains were tested on at least two different occasions. Mid-logarithmic phase cultures of P. aeruginosa 19056 muc were diluted in Mueller–Hinton broth to yield approximately 10^6 cfu/ml. Peptides were added at the indicated concentrations and the suspensions were then incubated for different times in a shaking water bath at 35°C. At the end of each incubation time, the samples were serially diluted in buffered saline and plated onto nutrient agar with a spiral plater (Don Whitley Scientific, Australia). Colonies were counted after 17–22 h incubation at 35°C using an automatic colony counter (Don Whitley Scientific, Australia).

Series [2] relates to B. subtilis. It counts as cell-based, Bacillus subtilis. The method, then:
as §1

The subject of series [3] is Strep. uberis. It counts as cell-based, Streptococcus uberis. The method, then: as §1
Series [4] relates to C. albicans (ATCC 753). The series is classed as cell-based, Candida albicans. The method, then:
as §1

For series [5], the system named is Strep. pyogenes (ATCC 19615). It counts as cell-based. The method, then:
as §1

Series [6] has as its system Sal. enterica (ATCC 14028). The series is classed as cell-based. As to the method:
as §1

Series [7] deals with S. aureus (ATCC 25923). The series is classed as cell-based, Staphylococcus aureus. To be noted: ATCC 25923, 3 h, pH 7.4. The method, then:
as §1

Series [8] relates to A. baumannii. It counts as cell-based, Acinetobacter baumannii. The note with it: 3 h. The method, then: as §1
The subject of series [9] is K. pneumoniae. It counts as cell-based, Klebsiella pneumoniae. To be noted: 3 h. As to the method: Figure 3 Time course of K. pneumoniae killing by WAM1 in broth. Time marked in minutes. […] Antimicrobial assays were performed as described previously.
Peptides were synthesized and HPLC purified (AusPep Pty Ltd). The two-stage radial diffusion assay used in this study has been described elsewhere. Briefly, ∼4×10^6 of mid-logarithmic-phase organisms were mixed into 10 ml of warm 0.8% agarose containing 0.03% (w/v) Trypticase soy broth (TSB) powder buffered with 10 mM sodium phosphate, pH 7.4. The synthetic peptides were serially diluted in 0.01% acetic acid and 5 µl peptide samples were loaded in 2.5 mm diameter wells. The plates were covered, and incubated at 37°C. After 3 hours, a 10 ml overlay gel composed of 6% TSB, 0.8% agarose in 10 mM sodium phosphate buffer (pH 7.4) was poured onto the plates. The plates were incubated overnight to allow the surviving organisms to form microcolonies. The clear zone was measured using a magnified transilluminator and expressed in units (1 mm = 10 U) after subtracting the well diameter. […] For multidrug-resistant bacteria, MICs were measured as described by micro-broth dilution in Mueller-Hinton broth (Oxoid, Hampshire, England) according to according to Clinical and Laboratory Standards Institute (CLSI) standards. […] Colonies were counted after 17–22 h incubation at 35°C using an automatic colony counter (Don Whitley Scientific, Australia).

Series [10] deals with P. aeruginosa. It counts as cell-based, Pseudomonas aeruginosa. To be noted: 3 h. As to the method: as §1
Series [11] concerns P. aeruginosa (ATCC 27853). It counts as cell-based, Pseudomonas aeruginosa. The note with it: ATCC 27853, 3 h, pH 7.4. As to the method: as §1
The subject of series [12] is K. pneumoniae. The series is classed as cell-based, Klebsiella pneumoniae. To be noted: 3 h. The method, then: as §1
The source holds these as a separate data set.

The subject of series [13] is human red blood cells. The series is classed as cell-based. As to the method:
Figure 4 Toxicity of WAM1 on human red blood cells. Haemolytic activity was determined by treating human red blood cells with different concentrations of WAM1 and haemoglobin release measured by absorbance at 450 nm. Samples were incubated at 37°C for 1 hour. PBS and 1% Tween-20 were used as negative and positive controls, representing 0% and 100% hemolytic activity respectively.

[14] abbreviates: Escherichia coli, Table 2, against E. coli, comparison of WAM1 with antibiotics, read-out: MIC.
Where [15] appears, read: DH5α, 3 h, pH 7.4, read-out: MIC.

Values after ≈ are worked out from the molar mass of the structure shown. Read-outs that look alike come from different tables or passages of the source. Where no end group is shown, it is not given here.

Regarding `CC1(C)S[C@@H]2[C@H](NC(=O)[C@H](N)c3ccccc3)C(=O)N2[C@H]1C(=O)O` [Ampicillin], the MIC in series [1] (setting [14]) is 5.7 µM (≈ 1.99 µg/mL). Further, in series [1], the “Relative potency of WAM1” value was determined as 12 x.
As to `O=C(N[C@H](CO)[C@H](O)c1ccc([N+](=O)[O-])cc1)C(Cl)Cl` [Chloramphenicol], the MIC in series [1] (Escherichia coli) worked out at 12.4 µM (≈ 4.01 µg/mL). In addition, the “Relative potency of WAM1” value in series [1] is 26 x.
As for `CC[C@H](C)[C@H](NC(=O)[C@H](CCCCN)NC(=O)[C@H](CCC(=O)O)NC(=O)[C@H](CCCCN)NC(=O)[C@H](CO)NC(=O)[C@H](CCCCN)NC(=O)[C@H](CCCNC(=N)N)NC(=O)[C@H](Cc1ccccc1)NC(=O)[C@H](Cc1ccccc1)NC(=O)[C@H](CC(=O)O)NC(=O)CNC(=O)[C@H](CC(C)C)NC(=O)[C@@H](N)CC(C)C)C(=O)NCC(=O)N[C@@H](CCCCN)C(=O)N[C@@H](CCC(=O)O)C(=O)N[C@@H](Cc1ccccc1)C(=O)N[C@@H](CCCCN)C(=O)N[C@@H](CCCNC(=N)N)C(=O)N[C@H](C(=O)N[C@H](C(=O)N[C@@H](CCC(N)=O)C(=O)N[C@@H](CCCNC(=N)N)C(=O)N[C@H](C(=O)N[C@@H](CCCCN)C(=O)N[C@@H](CC(=O)O)C(=O)N[C@@H](Cc1ccccc1)C(=O)N[C@@H](CC(C)C)C(=O)N[C@@H](CCCNC(=N)N)C(=O)N[C@@H](CC(N)=O)C(=O)N[C@@H](CC(C)C)C(=O)N[C@H](C(=O)N1CCC[C@H]1C(=O)N[C@@H](CCCNC(=N)N)C(=O)N[C@H](C(=O)N[C@@H](CCC(=O)O)C(=O)N[C@@H](CO)C(=O)O)[C@@H](C)O)C(C)C)[C@@H](C)CC)C(C)C)[C@@H](C)CC` [LL37, reference compound], the MIC is 5.57 µM (≈ 25 µg/mL) in series [1] (E. coli DH5α, two-stage radial diffusion, 0.8% agarose, 0.03% TSB, 10 mM sodium phosphate pH 7.4, 37°C, MIC = x intercept of regression line of zone diameters, read-out: MIC); 8.62 µM (≈ 38.7 µg/mL) in series [2] (B. subtilis, two-stage radial diffusion, 10 mM sodium phosphate pH 7.4, 37°C); 2.24 µM (≈ 10.1 µg/mL) in series [3] (Strep. uberis, two-stage radial diffusion, 10 mM sodium phosphate pH 7.4, 37°C); over 56 µM in series [4] (C. albicans (ATCC 753), two-stage radial diffusion, 10 mM sodium phosphate pH 7.4, 37°C); over 55 µM in [5] (Strep. pyogenes (ATCC 19615), two-stage radial diffusion, 10 mM sodium phosphate pH 7.4, 37°C); 4.30 µM (≈ 19.3 µg/mL) in series [6] (Sal. enterica (ATCC 14028), two-stage radial diffusion, 10 mM sodium phosphate pH 7.4, 37°C).
On to `CN(C)[C@@H]1C(O)=C(C(N)=O)C(=O)[C@@]2(O)C(O)=C3C(=O)c4c(O)cccc4[C@@](C)(O)[C@H]3C[C@@H]12` [Tetracycline], for which the MIC in [1] (setting [14]) worked out at 4.5 µM (≈ 2 µg/mL). The “Relative potency of WAM1” value in [1] is 10 x.
“KRGFGKKLRKRLKKFRNSIKKRLKNFNVVIPIPLPG [WAM1]”: the MIC stood at 0.47 µM in series [1] (setting [15]); 0.47 µM in series [1] (DH5α, 3 h, read-out: MIC); 1.50 µM in series [2] (3 h, pH 7.4); 1.22 µM in [3] (3 h, pH 7.4); 1.01 µM in [7]; 1.30 µM in series [4] (ATCC 753, 3 h, pH 7.4). The MIC is given as 0.66 µM in series [5] (ATCC 19615, 3 h, pH 7.4); 1.14 µM in [6] (ATCC 14028, 3 h, pH 7.4); 0.77 µM in [11]. Besides, the “MIC 0 mM NaCl” value in series [8] was found to be 1.9 µM; in series [10], 0.9 µM; in series [12], 0.5 µM. The “MIC 150 mM NaCl” value in series [8] is reported as 1.9 µM; in [10], 0.9 µM; in series [12], 0.9 µM. The entries for the “MIC 200 mM NaCl” value in series [8], in series [10] and in [12] were 3.8 µM, 0.9 µM and 0.9 µM, respectively. In [9], this molecule displayed a K. pneumoniae killed of 99.9%. Moreover, the “Haemolytic activity against human red blood cells” value in series [13] is listed as “not hemolytic”.
As to “KRGLWESLKRKATKLGDDIRNTLRNFKIKFPVPRQG [WAM2]”, the MIC in [1] (setting [15]) turned out to be 1.46 µM; in series [2] (3 h, pH 7.4) it was 2.14 µM; in series [3] (3 h, pH 7.4) it was 0.63 µM; in series [7], 1.39 µM; in series [4] (ATCC 753, 3 h, pH 7.4), 1.47 µM; in series [5] (ATCC 19615, 3 h, pH 7.4) it was 0.39 µM. Further, the MIC in series [6] (ATCC 14028, 3 h, pH 7.4) worked out at 1.58 µM; in [11] it was 1.29 µM.
With RPWAGNGSVHRYTVLSPRLKTQ [PAM2], the MIC in series [1] (setting [15]) came out at 0.87 µM; in series [2] (3 h, pH 7.4), 3.37 µM; in series [3] (3 h, pH 7.4) it was 0.51 µM; in series [7] it was 2.42 µM; in series [4] (ATCC 753, 3 h, pH 7.4), 2.50 µM; in series [5] (ATCC 19615, 3 h, pH 7.4) it was 0.83 µM. In addition, the MIC in [6] (ATCC 14028, 3 h, pH 7.4) is 1.11 µM; in [11], 0.73 µM.
For “RRGFWKRLRRRLRRFGDRIRNRFRNFREKLPDPFPG [Ancestral WAM]”, the MIC is given as 0.41 µM in series [1] (setting [15]); 1.56 µM in [2] (3 h, pH 7.4); 0.07 µM in series [3] (3 h, pH 7.4); 1.42 µM in [7]; 6.45 µM in series [4] (ATCC 753, 3 h, pH 7.4); 0.68 µM in series [5] (ATCC 19615, 3 h, pH 7.4). Also, the MIC in series [6] (ATCC 14028, 3 h, pH 7.4) was found to be 0.96 µM; in series [11], 2.06 µM.
For “RTKRRIKLIKNGVKKVKDILKNNNIIILPGSNEK [PAM1]”, the MIC is reported as 0.75 µM in series [1] (setting [15]); 1.96 µM in [2] (3 h, pH 7.4); 0.25 µM in series [3] (3 h, pH 7.4); 0.56 µM in series [7]; over 20 µM in series [4] (ATCC 753, 3 h, pH 7.4); 0.73 µM in series [5] (ATCC 19615, 3 h, pH 7.4). The MIC in series [6] (ATCC 14028, 3 h, pH 7.4) was 0.47 µM; in series [11], 1.89 µM.
